Data published in the NIST ThermoML archive (doi:10.1021/je900596d).

Conditions: for mass density: Fluid (supercritical or subcritical phases), Vibrating tube method; for vapor or sublimation pressure: Liquid, Closed cell (Static) method

FC(F)=C(F)C(F)(F)F [hexafluoropropene]
mass density [kg/m3]
Conditions	358.16 K	362.9 K
6.3 kPa	–	0.34
6.7 kPa	0.18	–
7.2 kPa	0.21	–
7.5 kPa	0.23	–
7.7 kPa	0.26	–
8.4 kPa	–	0.44
8.5 kPa	0.27	–
8.8 kPa	0.31	–
9.2 kPa	0.32	–
9.8 kPa	0.34	–
10.7 kPa	–	0.55
12.4 kPa	0.45	–
13.4 kPa	0.5	–
14.5 kPa	0.6	–
15.1 kPa	–	0.65
15.5 kPa	0.63	–
16.5 kPa	0.69	–
17.2 kPa	–	0.88
17.6 kPa	0.76	–
19.6 kPa	0.84	–
20.7 kPa	0.88	–
20.8 kPa	–	1.04
21.7 kPa	0.92	–
22.7 kPa	1.01	–
23 kPa	–	1.15
23.9 kPa	1.07	–
25.2 kPa	–	1.27
25.9 kPa	1.13	–
26.9 kPa	1.2	–
27.9 kPa	1.24	–
29 kPa	1.31	–
30 kPa	1.37	–
31 kPa	1.42	–
31.8 kPa	–	1.53
32 kPa	1.45	–
33 kPa	1.5	–
34 kPa	1.62	1.65
35.1 kPa	1.63	–
36.1 kPa	1.72	–
37.4 kPa	–	1.78
39.1 kPa	1.8	–
40.1 kPa	1.85	–
40.2 kPa	–	2
41.2 kPa	1.9	–
42.2 kPa	1.99	–
42.3 kPa	–	2.22
45.3 kPa	2.13	–
47.8 kPa	–	2.29
52.2 kPa	2.54	–
57.7 kPa	–	2.87
58.8 kPa	2.84	–
64.3 kPa	–	3.19
65.5 kPa	3.31	–
72.2 kPa	3.58	–
75.1 kPa	–	3.75
79 kPa	3.91	–
81.7 kPa	–	4.07
85.8 kPa	4.34	–
88 kPa	–	4.26
92.6 kPa	4.61	–
96.7 kPa	–	4.85
99.4 kPa	4.96	–
103.1 kPa	–	5.2
109.4 kPa	–	5.38
115.5 kPa	5.84	–
122.1 kPa	–	6.16
124.6 kPa	6.23	–
128.4 kPa	–	6.44
133.8 kPa	6.76	–
134.6 kPa	–	6.83
140.8 kPa	–	7.19
142.9 kPa	7.23	–
146.9 kPa	–	7.41
152 kPa	7.73	–
153.1 kPa	–	7.6
161.1 kPa	8.2	–
162.6 kPa	–	8.2
170.1 kPa	8.69	–
172.6 kPa	–	8.83
179.2 kPa	9.15	–
183.5 kPa	–	9.3
188.3 kPa	9.64	–
191.9 kPa	–	9.53
197.2 kPa	10.14	–
201.8 kPa	10.33	–
205.9 kPa	–	10.23
215.2 kPa	11.03	–
217.1 kPa	–	10.89
228.6 kPa	11.76	–
239.3 kPa	–	12.29
241.9 kPa	12.39	–
250.5 kPa	–	12.86
255.2 kPa	13.18	–
261.7 kPa	–	13.26
268.5 kPa	13.87	–
272.8 kPa	–	13.91
281.6 kPa	14.57	–
284 kPa	–	14.66
294.9 kPa	–	14.96
295.2 kPa	15.37	–
305.9 kPa	–	15.65
308.9 kPa	16.07	–
322.3 kPa	–	16.67
323.1 kPa	16.83	–
337.5 kPa	17.58	–
338.5 kPa	–	17.36
352.1 kPa	18.44	–
354.9 kPa	–	18.21
366.8 kPa	19.21	–
370.9 kPa	–	19.21
381.5 kPa	19.95	–
386.8 kPa	–	19.93
396.2 kPa	20.78	–
402.6 kPa	–	20.85
411 kPa	21.59	–
418.2 kPa	–	21.77
427.6 kPa	22.57	–
444 kPa	23.52	–
449.3 kPa	–	23.6
460.4 kPa	24.33	–
476.7 kPa	25.35	–
485.1 kPa	–	25.57
492.9 kPa	26.26	–
500.3 kPa	–	26.4
509.2 kPa	27.13	–
520.6 kPa	–	27.39
525.3 kPa	28.12	–
540.4 kPa	–	28.38
541.5 kPa	29.02	–
557.6 kPa	29.96	–
560.3 kPa	–	29.54
575.1 kPa	31	–
580 kPa	–	30.72
592.7 kPa	31.99	–
599.7 kPa	–	31.79
610.1 kPa	32.94	–
619.3 kPa	–	32.97
627.5 kPa	34	–
638.8 kPa	–	34.15
645.1 kPa	35.06	–
658.1 kPa	–	35.19
663.8 kPa	36.18	–
677.4 kPa	–	36.24
682.3 kPa	37.25	–
696.6 kPa	–	37.68
700.8 kPa	38.41	–
715.6 kPa	–	38.68
719.1 kPa	39.53	–
737.3 kPa	40.62	–
753.3 kPa	–	40.79
755.2 kPa	41.68	–
772.1 kPa	–	41.86
773.2 kPa	42.77	–
790.7 kPa	–	43.17
791.1 kPa	43.9	–
808.6 kPa	44.92	–
809.2 kPa	–	44.11
827.4 kPa	–	45.36
843.9 kPa	47.16	–
845.6 kPa	–	46.55
861.2 kPa	48.3	–
863.7 kPa	–	47.41
878.4 kPa	49.34	–
881.6 kPa	–	48.62
895.4 kPa	50.38	–
899.5 kPa	–	49.68
912.3 kPa	51.52	–
917.1 kPa	–	50.72
929.2 kPa	52.65	–
934.7 kPa	–	52.13
945.9 kPa	53.68	–
952.2 kPa	–	53.09
964.1 kPa	54.95	–
969.4 kPa	–	54.03
981.4 kPa	56.09	–
999 kPa	57.2	–
1004 kPa	57.55	–
1037.2 kPa	59.89	–
1056.7 kPa	61.12	–
1079.5 kPa	62.72	–
1113.6 kPa	65.06	–
1151.3 kPa	67.79	–
1177.8 kPa	69.69	–
1204.6 kPa	71.61	–
1231.5 kPa	73.4	–
1251 kPa	74.95	–
1277.5 kPa	76.93	–
1297.2 kPa	78.23	–
1318.3 kPa	79.8	–
1351 kPa	82.19	–
1384.5 kPa	84.6	–
1419.6 kPa	87.38	–
1453.8 kPa	89.96	–
1487.2 kPa	92.64	–
1522.4 kPa	95.5	–
1557 kPa	98.35	–
1592 kPa	101.11	–
1624.7 kPa	103.88	–
1659.3 kPa	106.85	–
1677.7 kPa	108.37	–
1712.3 kPa	111.38	–
1748.1 kPa	114.59	–
1780.9 kPa	117.54	–
1815.7 kPa	120.8	–
1848.2 kPa	123.82	–
1883.1 kPa	127.18	–
1916.7 kPa	130.47	–
1948.8 kPa	133.66	–
1982.5 kPa	137.05	–
2016.7 kPa	140.6	–
2051.6 kPa	144.28	–
2085.7 kPa	147.98	–
2118.7 kPa	151.7	–
2152.9 kPa	155.54	–
2185.6 kPa	159.34	–
2250.5 kPa	167.24	–
2283.4 kPa	171.42	–
2316.3 kPa	175.71	–
2349.2 kPa	180.05	–
2381.8 kPa	184.6	–
2414.3 kPa	189.16	–
2462.8 kPa	196.45	–
2529.2 kPa	206.94	–
2562.6 kPa	212.61	–
2581.2 kPa	215.74	–
2616.7 kPa	222.24	–
2635.2 kPa	225.67	–
2669.9 kPa	232.45	–
2703.7 kPa	239.44	–
2738.3 kPa	247.03	–
2771.6 kPa	254.87	–
2806.3 kPa	263.68	–
2839.2 kPa	272.73	–
2872.4 kPa	282.77	–
2905.9 kPa	293.88	–
2939.1 kPa	305.79	–
2972 kPa	319.7	–
3000.1 kPa	333.22	–
3003 kPa	334.75	–
3005.7 kPa	336.23	–
3008.2 kPa	337.55	–
3010.9 kPa	338.92	–
3013.2 kPa	340.27	–
3015.5 kPa	341.83	–
3017.6 kPa	343.29	–
3019.8 kPa	344.7	–
3022.4 kPa	346.21	–
3025.8 kPa	348.17	–
3027.8 kPa	349.31	–
3031.6 kPa	351.6	–
3035.5 kPa	354.08	–
3037.5 kPa	355.4	–
3041.3 kPa	357.97	–
3045.1 kPa	360.72	–
3047.1 kPa	362.14	–
3050.9 kPa	364.96	–
3054.3 kPa	367.81	–
3057.8 kPa	370.74	–
3061.2 kPa	373.72	–
3064.5 kPa	376.75	–
3067.7 kPa	379.88	–
3071 kPa	383.12	–
3074 kPa	386.4	–
3077 kPa	389.78	–

Conditions	vapor or sublimation pressure [kPa]
358.26 K	3095.1
358.76 K	3128.1
